The METLIN SMRT retention time set (Domingo-Almenara et al. 2019)

assay: gradient 5% acetonitrile 3 min, to 50% in 2 min, to 85% in 15 min, held 3 min, 100 µL/min; conditions: column: Zorbax Extend-C18 2.1 x 50 mm; eluents: water / acetonitrile, 0.1% formic acid
Outline: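 The mobile phases were water and acetonitrile, each with 0.1% formic acid, pumped at 100 μL/min through a Zorbax Extend-C18 column (2.1 × 50 mm, 1.8 μm). Pure standards were injected as mixtures of ~100 molecules and detected by a quadrupole time-of-flight mass spectrometer in positive and negative ionization mode. Retention time came from computationally picked adduct peaks, each inspected by hand.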

Compound	RP-LC retention time [s]
CCn1cc(C(=O)Nc2ccc(F)c(F)c2)c(S(=O)(=O)N2CCC(C)CC2)n1	1170
CCc1ccc(NC(=O)Cn2c(N)nc(CC)cc2=O)cc1	596
FC(F)(F)c1nc(N2CCN(C(c3ccccc3)c3ccccc3)CC2)nc2c1CCCCC2	559
Cc1ccc(CNC(=O)C2CCCN(c3nnc(C)c4c(C)n(-c5ccc(Cl)cc5)nc34)C2)cc1 (centres undefined)	784
Cn1cc(-c2cc3n(n2)CCC(=O)N3CC(=O)NCc2ccccc2)c2ccccc21	798
CCn1cnc(S(=O)(=O)N2CCCC(C(=O)Nc3cccc(CN4CCCC4)c3)C2)c1 (centres undefined)	607
CCOC(=O)c1c(C)oc2nc(C)nc(NCCc3ccc(OC)c(OC)c3)c12	1050
COc1cc(NC(=O)c2cc(C(C)C)n3nccc3n2)cc(OC)c1OC	915
O=C(NCc1csc(C2CCN(C(=O)COc3ccccc3)CC2)n1)C1CC1	701
O=C(Cn1nc2c(N3CCc4ccccc4C3)nccn2c1=O)NC1CCCC1	793
CCC(=O)N1CCOc2ccc(NC(=O)C3CC3)cc2C1	674
COCCn1cc(CCNC(=O)Nc2cc(F)c(F)c(F)c2)c2cccnc21	800
CCn1c(C(=O)NCc2ccc(N(C)C)cc2)cc2c(-c3cccs3)nn(-c3ccccc3)c21	906
O=C(CN1CCN(c2ccccn2)CC1)N1N=CCC1c1ccccc1 (centres undefined)	573
Cc1ccc(Cn2c(=O)c3sccc3n(Cc3nc(-c4ccccc4)no3)c2=O)cc1	1150
CCN(CCO)CCCOc1ccc2c(Nc3cc(CC(=O)Nc4cccc(F)c4)[nH]n3)ncnc2c1	611
COc1ccc(Cc2nc3nccc(-c4ccc(OC)cc4)n3n2)cc1	878
CCc1cccc(NC(=O)C2CCCN(c3nnc(C)c4c(C)n(-c5ccccc5)nc34)C2)c1 (centres undefined)	815
COc1ccc(N2CCCn3c2nc2c3c(=O)n(C)c(=O)n2C)cc1	568
Cc1cccc(C(=O)N2N=C(c3ccco3)CC2c2cccs2)c1 (centres undefined)	940
Cc1ccc(-c2noc(C3CCCCN3)n2)cc1 (centres undefined)	630

Compound	RP-LC retention time [s]
CCOc1ccc2ncc(C#N)c(NCc3ccccc3)c2c1	634
O=C(Cn1cnc2ccccc21)Nc1nc2c(s1)C(=O)CCC2	558
CCOC(=O)CNC(=O)Nc1cc(F)c2nc(N3CCCCC3)ccc2c1	596
Cc1noc(C)c1Cc1ccc(C(=O)N2CCc3nn(C)c(=O)n3CC2)o1	633
COC[C@@H]1CN(Cc2cccc(OC)c2OC)C[C@H]1c1ccncc1	656
CCOC(=O)c1cc(S(=O)(=O)N2CCCC2C(=O)NC(C)C)cn1C (centres undefined)	746
CCOC(=O)c1c(C)c(CCC(=O)NC2CCCCC2)n(C)c1C	892
Cc1cccc(NC(=O)CN2c3ccccc3NC3=C(C(=O)CCC3)C2c2ccco2)c1C (centres undefined)	851
CCn1c(=O)n(Cc2ccccc2Cl)c(=O)c2cnc(-c3ccc(OC)cc3)nc21	1010
CCOc1ccccc1NC(=O)N1CCCC(C)(C(=O)NCc2ccccc2C)C1 (centres undefined)	860
CCCNC(=O)Cn1c(C)nc2ccccc21	571
CCC(CC)NC(=O)c1c(OCC2CC2)cc(=O)n2c1CCCCC2	754
CC1(C(=O)NCc2ccc(F)cc2)CN(S(C)(=O)=O)CC(=O)N1CCCc1ccccc1 (centres undefined)	882
CN1CCCc2cc(C(=O)N3CCC4(CC3)OCCO4)sc21	796
Cc1ccc(C)c(NC(=O)Cn2nc(N(C)C)c3ccccc3c2=O)c1	862
CC(C)Cc1csc(-c2csc(S(=O)(=O)NC3CCCCC3)c2)n1	1320
Cc1ccc(Cl)cc1N1CCN(C(=O)CCc2nnc3c4cc(-c5ccccc5)nn4ccn23)CC1	999
Cc1ccc(-c2nnc(Cc3nc(-c4cccc(Cl)c4)no3)o2)cc1C	1230
CCOc1ccc2c(n1)CCN(C(=O)C1(c3ccccc3)CC1)C2	952
Cc1ccc(Cn2nc3c(S(=O)(=O)N4CCOCC4)cccn3c2=O)c(C)c1	849
CN(CCc1noc(COc2ccc(Cl)cc2)n1)C(=O)NCCc1ccccc1	965

Compound	RP-LC retention time [s]
Cc1cc2nn(CC(=O)Nc3ccc(F)cc3)c(=O)n2c(Nc2ccc(F)cc2)n1	972
Cc1ccc2nc(-c3ccccc3)c(Nc3ccc4c(c3)OCCO4)n2c1	697
Cc1cccc(C(=O)NCC2CCCN(S(=O)(=O)c3ccc4c(c3)CCCC4)C2)c1 (centres undefined)	1150
O=S(=O)(Nc1ccc(Cl)cn1)c1cc(-c2noc(C3CCCC3)n2)cs1	1070
CN1CCCc2cc(C(=O)NCc3ccccc3F)sc21	915
COC1CN(C2CCN(C(=O)CC(C)C)CC2)C12CCOCC2 (centres undefined)	579
CCOC(=O)c1sc2ncnc(N3CCc4ccccc4C3)c2c1C	1310
Cc1ccc(-c2nnc(CC(=O)NCC3CCCO3)o2)cc1 (centres undefined)	667
Cn1c(=O)c2c(ncn2CC(=O)N2CCC(C)(c3noc(C4CC4)n3)CC2)n(C)c1=O	672
CCc1cc(C(=O)Nc2cccc(C)c2C)nc2ccnn12	1150
COC(=O)Cn1c(=O)c2c(nc3n2CCCN3c2ccccc2)n(C)c1=O	761
O=C(NC1CCCCCCC1)C1CCN(C(=O)c2ccc(F)cc2)CC1	858
COc1ccccc1Nc1nc(-c2ccccc2)cs1	1150
Cc1ccc(C(=O)N2C[C@@H]3C[C@H](NS(C)(=O)=O)[C@H]2C3)cc1F	671
CCN1CCN(C(=S)Nc2ccc3nc(N4CCN(CC)CC4)cc(C)c3c2)CC1	519
CCOC(=O)N1CCN(C(=O)Nc2nc(CC(=O)NC3CCCCCC3)cs2)CC1	704
O=c1c2sccc2n(Cc2nc(-c3ccc(F)cc3)no2)c(=O)n1-c1ccc(F)cc1	987
COc1ccc(-c2noc(Cn3ccnc3)n2)cc1OC	586
Cc1nc(-c2cn(C(C)C)c3ncccc23)sc1C(=O)N(C)Cc1ccccc1	1050
COC[C@@H]1CN(S(=O)(=O)c2cccc(F)c2)C[C@H]1c1ccccn1	639

The remaining lines, values ahead:

RP-LC retention time [s]	Compound
646	CCC(=O)Nc1c(C)noc1/C=C\c1ccc(S(=O)(=O)N2CCN(c3ccccn3)CC2)cc1
581	Cc1ccc(C(=O)c2cnc3cc4c(cc3c2N2CCN(C)CC2)OCO4)cc1C
673	CC1CCCN(CC2CCN(S(=O)(=O)c3ccc(F)cc3Cl)CC2)C1 (centres undefined)
660	COC(=O)c1c(-c2ccc(Cl)cc2)noc1NCCN1CCN(C)CC1
1370	CCCc1ccc(S(=O)(=O)N2CCC(c3noc(-c4cccc(C)c4)n3)CC2)cc1
738	CNC(=O)Nc1cc(C)n(Cc2ccccc2)n1
561	CC(C)CCNC(=O)C1CCN(c2cncnc2N2CCN(C)CC2)CC1
836	Cc1nc(-c2nnn(Cc3ccccc3)c2C)no1
647	COc1ccccc1C(CNC(=O)c1cc(=O)c2cc(Cl)ccc2o1)N(C)C (centres undefined)
997	CCOc1cc(C(=O)N2CCN(c3cc(-c4ccc(Cl)cc4)[nH]n3)CC2)cc(OCC)c1OCC
925	CCn1cc(-c2nc(C)c(C(=O)Nc3ccc4c(c3)OCCO4)s2)c2cccnc21
1220	COc1cc(O)c(C(=O)/C=C/c2ccccc2)c(OC)c1
652	CN(C)C(CNS(=O)(=O)c1ccc(Cl)cc1)c1ccccc1 (centres undefined)
667	CS(=O)(=O)N(C1CCOCC1)C1CN(C(=O)Cc2c[nH]c3ccccc23)C1
1070	Cc1sc(C)c(S(=O)(=O)NC2CC2)c1-c1cc(C(F)(F)F)on1
996	CCCCOc1ccc(S(=O)(=O)N2CCN(c3cc(C)nc(NC4CCCCC4)n3)CC2)cc1
604	Cc1nn(C)c(C)c1S(=O)(=O)N1CCCC(Cc2nncn2-c2ccccc2)C1 (centres undefined)
885	O=C(CN1C(=O)C2CCCCN2c2ccc(S(=O)(=O)N3CCCC3)cc21)NCCc1ccco1 (centres undefined)
891	COc1ccccc1-c1nnc2sc(-c3cc(CC(C)C)[nH]n3)nn12
1030	Cc1cccc(-c2noc(C3CCCN3C(=O)C3CC(=O)N(c4ccc(C)c(C)c4)C3)n2)c1 (centres undefined)
750	CC(C)CNC(=O)C1Cn2cccc2C(=O)N1CC(C)C (centres undefined)
857	Cc1sc(-c2cc(C(F)(F)F)on2)cc1S(=O)(=O)N1CCN(C2CCCCC2)CC1
980	O=C1CCCc2cc(S(=O)(=O)N3CCN(c4cccc(C(F)(F)F)c4)CC3)ccc2N1
741	O=C(Nc1ccccc1F)[C@@H]1COCC(=O)N1Cc1cccs1
995	Fc1ccc(-c2nnc(Cc3nc(-c4ccccc4Cl)no3)o2)cc1
659	CCN1C(=O)c2cc(C(=O)NCc3ccccc3F)nn2CC1(C)C(=O)NC1CCCC1 (centres undefined)
936	CC(C)n1cc(S(=O)(=O)Nc2cc(F)cc(F)c2)c2cccnc21
